In patent publication US20070207537A1, “Bioreactor” (priority 2004, published 2007):

Test system: Human mesnchymal stem cells
Assay: Alamar Blue toxicity assay in perfused microbioreactor culture
Assay type: cell-based
Conditions: 250 ng/ml, read at day 3 and day 7, FIG. 3
Method: Human mesnchymal stem cells were suspended in the α Modified Eagle's Medium (MEM) at the cell density of 10^4/ml. A 50 μl of cell suspension was introduced to each of the microbioreactors and kept at 37° C. After 4 h, the cell was seen to attach to the surface of the microbioreactor under microscope. During culture, αMEM supplemented with 15% FBS, 2% antibiotics/antimycotics and with different concentrations of tested drugs was used. The chemicals used were Trimethoprim and Pyrimethamine, which are known to be toxic to cells. The concentrations of the drug were 100 ng/ml and 250 ng/ml. The flow rate was 0.025 ml/h. Alamar Blue was used to do toxicity assay, which simply indicates the cell metabolity.
The samples from 3 days of culture with drug, 7 days of culture with drug and 3 days of culture without drug and further 4 days culture with drug were incubated with culture medium supplemented with Alamar Blue at day 3 and day 7, respectively for 4 h. Then 100 μl of culture medium was transferred to 96-well plate to read using microplate reader at the excitation wavelength of 530 nm and emission wavelength of 590 nm. Toxicity was shown as the ratio of reading from untreated with drug and from treated with drug, see FIG. 3. The toxicity was increased with culture time with drug. No significant different in toxicity between the two concentrations of drug in the test.

CCc1nc(N)nc(N)c1-c1ccc(Cl)cc1 [Pyrimethamine]
Toxicity (ratio of reading from untreated with drug and from treated with drug): dramatic increase in toxicity
